Values after ≈ are worked out from the molar mass of the structure shown. Where two headings read alike, the source gives them in different places.
Experiments:
[1] = system: super sensitive Gram-negative Escherichia coli (E. coli) BAS849; assay: Antibacterial activity, microbroth dilution MIC, E. coli BAS849; type: cell-based; settings: Escherichia coli, read-out: MIC, BAS849
[2] = system: Moraxella catarrhalis (M. catarrhalis) 25238; assay: Antibacterial activity, MIC, M. catarrhalis 25238; type: cell-based; settings: Moraxella catarrhalis, M. catarrhalis 25238; read-out: MIC 25238
[3] = system: quinolone resistant E. coli LZ3111; assay: Antibacterial activity, MIC, quinolone resistant E. coli LZ3111; type: cell-based, Escherichia coli; settings: Escherichia coli, read-out: MIC, LZ3111
Source text: (§1) The antibacterial activity from a microbroth dilution method may be presented as the minimum inhibitory concentration (MIC in […]). The MIC value is the lowest concentration of a drug which prevents macroscopically visible bacterial growth under test conditions.
Mutations in these regions are known to confer a high level resistance to the quinolone class of antibiotics.

[4] = system: E. coli ELZ4000 (MDR clinical isolate); assay: Antibacterial activity, MIC, MDR E. coli ELZ4000; type: cell-based, Escherichia coli; settings: Escherichia coli; E. coli ELZ4000, MDR clinical isolate; read-out: MIC ELZ4000
[5] = system: E. coli ELZ4251 (MDR clinical isolate); assay: Antibacterial activity, MIC, MDR E. coli ELZ4251; type: cell-based, Escherichia coli; settings: Escherichia coli, E. coli ELZ4251, MDR clinical isolate; read-out: MIC ELZ4251
[6] = system: Haemophilus influenzae (H. influenzae) 49247; assay: Antibacterial activity, MIC, H. influenzae 49247; type: cell-based; settings: Haemophilus influenzae; H. influenzae 49247; read-out: MIC 49247
Source text: as §1
Antibacterial activity of test compounds against the Gram-negative bacteria Haemophilus influenzae (H. influenzae) 49247, Moraxella catarrhalis (M. catarrhalis) 25238 and Neisseria meningitidis (N. meningitidis) 13090 is shown in Table 6.

[7] = system: Gram-positive Staphylococcus aureus (S. aureus) 29213; assay: Antibacterial activity, microbroth dilution MIC, S. aureus 29213; type: cell-based; settings: Staphylococcus aureus; S. aureus 29213, microbroth dilution; read-out: MIC, 29213
[8] = system: Neisseria meningitidis (N. meningitidis) 13090; assay: Antibacterial activity, MIC, N. meningitidis 13090; type: cell-based; settings: Neisseria meningitidis; N. meningitidis 13090; read-out: MIC 13090
[9] = system: Pseudomonas aeruginosa (P. aeruginosa) 27853; assay: Antibacterial activity, MIC, P. aeruginosa 27853; type: cell-based; settings: Pseudomonas aeruginosa, P. aeruginosa 27853; read-out: MIC 27853
Source text: as §1
Antibacterial activity of test compounds against the Gram-negative bacterium Pseudomonas aeruginosa (P. aeruginosa) 27853 is shown in Table 5.

[10] = system: control Gram-negative E. coli 25922 strain; assay: Antibacterial activity, microbroth dilution MIC, E. coli 25922; type: cell-based, Escherichia coli; settings: Escherichia coli; E. coli 25922, microbroth dilution; read-out: MIC, 25922
[11] = E. coli BAS849, microbroth dilution

Structure (SMILES) | MIC [1, 11] [µg/mL] | MIC [2] [µg/mL] | MIC [3] [µg/mL] | MIC [4] [µg/mL] | MIC [5] [µg/mL] | MIC [6] [µg/mL] | MIC [7] [µg/mL] | MIC [8] [µg/mL] | MIC [9] [µg/mL] | MIC [10] [µg/mL] | MIC [1] [µg/mL]
CCc1cc(C(=O)O)c(=O)[nH]c1-c1ccc(N2CCC2)cc1 [Cpd 111, 6-[4-(azetidin-1-yl)phenyl]-5-ethyl-2-oxo-1,2-dihydropyridine-3-carboxylic acid] | < 1 | < 1 | 12.5 to 150 (≈ 41.9 to 503 µM) | 12.5 to 150 (≈ 41.9 to 503 µM) | 12.5 to 150 (≈ 41.9 to 503 µM) | < 1 | 12.5 to 150 (≈ 41.9 to 503 µM) | < 1 | 12.5 to 150 (≈ 41.9 to 503 µM) | 1 to 3.5 (≈ 3.35 to 11.7 µM) | –
CCc1cc(C(=O)O)c(=O)[nH]c1-c1ccc(N2CCC[C@@H]2COC)cc1 [Cpd 147, 5-ethyl-6-{4-[(2R)-2-(methoxymethyl)pyrrolidin-1-yl]phenyl}-2-oxo-1,2-dihydropyridine-3-carboxylic acid] | < 1 | < 1 | 12.5 to 150 (≈ 35.1 to 421 µM) | 12.5 to 150 (≈ 35.1 to 421 µM) | 12.5 to 150 (≈ 35.1 to 421 µM) | < 1 | 3.5 to 12.5 (≈ 9.82 to 35.1 µM) | < 1 | 12.5 to 150 (≈ 35.1 to 421 µM) | 3.5 to 12.5 (≈ 9.82 to 35.1 µM) | –
CCc1cc(C(=O)O)c(=O)[nH]c1-c1ccc(N2CCC(O)C2)cc1 (centres unmarked) [Cpd 123, 5-ethyl-6-[4-(3-hydroxypyrrolidin-1-yl)phenyl]-2-oxo-1,2-dihydropyridine-3-carboxylic acid] | < 1 | < 1 | 12.5 to 150 (≈ 38.1 to 457 µM) | 12.5 to 150 (≈ 38.1 to 457 µM) | 12.5 to 150 (≈ 38.1 to 457 µM) | < 1 | 3.5 to 12.5 (≈ 10.7 to 38.1 µM) | < 1 | 3.5 to 12.5 (≈ 10.7 to 38.1 µM) | < 1 | –
CCc1c(-c2ccc(N3CCCC3=O)cc2)[nH]c(=O)c(C(=O)O)c1O [Cpd 115, 5-ethyl-4-hydroxy-2-oxo-6-[4-(2-oxopyrrolidin-1-yl)phenyl]-1,2-dihydropyridine-3-carboxylic acid] | < 1 | < 1 | 12.5 to 150 (≈ 36.5 to 438 µM) | 12.5 to 150 (≈ 36.5 to 438 µM) | 12.5 to 150 (≈ 36.5 to 438 µM) | < 1 | 12.5 to 150 (≈ 36.5 to 438 µM) | < 1 | 12.5 to 150 (≈ 36.5 to 438 µM) | 3.5 to 12.5 (≈ 10.2 to 36.5 µM) | –
C=CCN(CC=C)c1ccc(-c2[nH]c(=O)c(C(=O)O)c(O)c2CC)cc1 [Cpd 300, 6-{4-[di(prop-2-en-1-yl)amino]phenyl}-5-ethyl-4-hydroxy-2-oxo-1,2-dihydropyridine-3-carboxylic acid] | 1 to 3.5 (≈ 2.82 to 9.88 µM) | < 1 | 12.5 to 150 (≈ 35.3 to 423 µM) | 12.5 to 150 (≈ 35.3 to 423 µM) | 12.5 to 150 (≈ 35.3 to 423 µM) | 12.5 to 150 (≈ 35.3 to 423 µM) | 1 to 3.5 (≈ 2.82 to 9.88 µM) | < 1 | – | 12.5 to 150 (≈ 35.3 to 423 µM) | –
CCc1cc(C(=O)O)c(=O)[nH]c1-c1ccc(N2CCC[C@H]2C(=O)O)cc1 [Cpd 157, 6-{4-[(2S)-2-carboxypyrrolidin-1-yl]phenyl}-5-ethyl-2-oxo-1,2-dihydropyridine-3-carboxylic acid] | < 1 | < 1 | 12.5 to 150 (≈ 35.1 to 421 µM) | 12.5 to 150 (≈ 35.1 to 421 µM) | 12.5 to 150 (≈ 35.1 to 421 µM) | < 1 | 12.5 to 150 (≈ 35.1 to 421 µM) | < 1 | 12.5 to 150 (≈ 35.1 to 421 µM) | 3.5 to 12.5 (≈ 9.82 to 35.1 µM) | –
CCc1cc(C(=O)O)c(=O)[nH]c1-c1ccc(N2CC(O)C2)cc1 [Cpd 121, 5-ethyl-6-[4-(3-hydroxyazetidin-1-yl)phenyl]-2-oxo-1,2-dihydropyridine-3-carboxylic acid] | < 1 | < 1 | 12.5 to 150 (≈ 39.8 to 477 µM) | 12.5 to 150 (≈ 39.8 to 477 µM) | 12.5 to 150 (≈ 39.8 to 477 µM) | < 1 | 12.5 to 150 (≈ 39.8 to 477 µM) | < 1 | – | 3.5 to 12.5 (≈ 11.1 to 39.8 µM) | –
CCc1c(-c2ccc(N3CCNCC3)cc2)[nH]c(=O)c(C(=O)O)c1O.O=C(O)C(F)(F)F [Cpd 105, 5-ethyl-4-hydroxy-2-oxo-6-[4-(piperazin-1-yl)phenyl]-1,2-dihydropyridine-3-carboxylic acid trifluoroacetate] | – | 3.5 to 12.5 | 12.5 to 150 | 12.5 to 150 | 12.5 to 150 | 3.5 to 12.5 | 12.5 to 150 | 1 to 3.5 | – | 3.5 to 12.5 | 1 to 3.5
CCc1cc(C(=O)O)c(=O)[nH]c1-c1ccc(N2C[C@@H](N)[C@H](OC)C2)cc1.Cl [Cpd 134, 6-{4-[(3R,4R)-3-amino-4-methoxypyrrolidin-1-yl]phenyl}-5-ethyl-2-oxo-1,2-dihydropyridine-3-carboxylic acid hydrochloride] | < 1 | 3.5 to 12.5 | 12.5 to 150 | 12.5 to 150 | 12.5 to 150 | < 1 | 12.5 to 150 | < 1 | – | 3.5 to 12.5 | –

Source: patent US9650395B2, “Antibacterial compounds and methods for use” (PTC Therapeutics, Inc., priority 2011, dated 2017)
